From publication PMC5315633 (ACS chemical biology, 2016)

Key:
Psf3 [1] = biological target: T1, Psf3 (Pseudomonas syringae, UniProt I6R485); test: NADPH consumption at […] nm, Michaelis-Menten fit; type: biochemical; settings: 250 uM NADPH (saturating), 50 mM HEPES pH 7.5
T1 sequence (I6R485 1-295): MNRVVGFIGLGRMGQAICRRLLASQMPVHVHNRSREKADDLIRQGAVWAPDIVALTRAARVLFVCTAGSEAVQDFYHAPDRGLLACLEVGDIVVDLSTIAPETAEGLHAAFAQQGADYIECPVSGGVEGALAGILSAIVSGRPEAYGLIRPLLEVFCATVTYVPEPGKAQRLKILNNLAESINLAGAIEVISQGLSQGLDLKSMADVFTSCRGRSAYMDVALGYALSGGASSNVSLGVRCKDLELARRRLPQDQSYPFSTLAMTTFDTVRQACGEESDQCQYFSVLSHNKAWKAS

Psf3 [2] = biological target: T1, Psf3; test: […] NMR of reverse; type: biochemical; settings: 2 mM NADP+, 1 mM (S)-2-HPP, pH 7.5, room temperature

| SMILES | KM (Psf3 [1]) | 31P NMR of reverse (oxidation) reaction (Psf3 [2]) |
| --- | --- | --- |
| CC(=O)CP(=O)(O)O [2-OPP] | Kinetic parameters, with respect to 2-OPP and determined by monitoring the consumption of NADPH | – |
| C[C@H](O)CP(=O)(O)O [(S)-2-HPP] | – | reaction with (S)-2-HPP resulted in a new peak that is consistent with 2-OPP |
